Here are results for four molecules from patent US8969296B2, “TGFP-CAP peptide and its uses” (Caregen Co., Ltd, priority 2007, dated 2015).

Where a SMILES comes first, the peptide text is derived from it.

Data set [1] has as its system B16F10 cells. The data set is described as follows: Melanosome formation under ERK inhibition by PD98059 (microscopy). The note with it: 10 μM PD98059; with 1 ng/ml transforming growth factor or 30 μg/ml tridecapeptide; 4 days. The format is cell-based. Here is the method: To reveal skin whitening effects of the tridecapeptide synthesized in Example 1 and transforming growth factor, the activation of ERK was inhibited with PD98059 (Sigma) and then its inhibitory influence was evaluated after peptide treatment. B16F10 cells were seeded in 6-well culture dishes in a density of 1×10^5 cells/well and cultured in DMEM for 3 days at 37° C. under 5% CO2 conditions. After cell adhesion was observed, medium was changed with a fresh medium containing 2% serum. The negative control was not subject to any treatment. Cells plated in other two culture dishes were incubated with either 1 ng/ml transforming growth factor or 30 μg/ml tridecapeptide. In addition, cells cultured in other three dishes as a positive control were incubated with 10 μM PD98059 to inhibit ERK phosphorylation. Among them, cells contained in two dishes were incubated for 4 days with either 1 ng/ml transforming growth factor or 30 μg/ml tridecapeptide after 1-hr PD98059 treatment and their morphology was observed under microscopes.

Data set [2] has as its system TRP-1 (tyrosinase related protein-1) and TRP-2. The data set is described as follows: Levels of TRP-1 and TRP-2 in melanoma cells (Western blotting). The format is cell-based. The note with it: 10 μM PD98059; with 10 ng/ml TGF-β1 or 30 μg/ml tridecapeptide. Background: In western blotting, separated proteins are transferred to a membrane and probed.
Data set [3] relates to ERK 1/2. Put plainly: Western blotting of Phospho ERK 1/2 in melanoma cells. The format is cell-based. The note with it: 10 μM PD98059; with 10 ng/ml TGF-β1 or 30 μg/ml tridecapeptide. Here is the method:
Furthermore, to clearly verify the influence of TGF-β1 and tridecapeptide on signaling events, melanoma cells were cultured as described above and then incubated simultaneously with 10 μM PD98059 and 30 μg/ml tridecapeptide. Proteins from cell extracts were prepared and developed on SDS-PAGE, followed by electro-transferring to PVDF (polyvinylidene difluoride) membrane (GE Health Care). Afterwards, the PVDF membrane was incubated with Phospho ERK 1/2 antibodies (1/3000 diluted, Cell Signaling, USA) for 4 hr at room temperature. The PVDF membrane was washed with a washing buffer and incubated with HRP-conjugated anti-mouse IgG antibodies (1/5000 diluted, SantaCruz, USA). Then, it was washed twice with a washing buffer and incubated with ECL (enhanced chemilumineseance) solution (GE Health Care) (FIG. 6). In FIG. 6, among PD98059 treatment groups, the symbol “Con” is a group incubated with only 10 μM PD98059 and “TGFb1” is a group incubated with both 10 μM PD98059 and 10 ng/ml TGF-β1.

For data set [4], the system named is B16F10. The data set is described as follows: Cytotoxicity test, SRB colorimetric assay, melanoma cells. The class given is cell-based. The note with it: 500 pg/ml-200 μg/ml, 72 hr. The protocol: (§1) To verify cytotoxicity of peptides of this invention on keratinocytes, fibroblasts and melanoma cells, SRB (Sulforhodamine B) colorimetric assay was carried out using HaCaT, NIH3T3 and B16F10 cells according to Rizzino et al method (Rizzino, et al. Cancer Res., 48:4266 (1988)). HaCaT, NIH3T3 or B16F10 cells (Korean Cell Line Bank) were cultured in 250 ml-flasks containing EMEM (Eagle's minimal essential media, Gibco, U.S.A.) supplemented with […] (fetal bovine serum). Cells cultured were treated with 0.25% trypsin solution to detach cells from the bottom of culture flasks and centrifuged to collect cell pellets. Cells were resuspended in EMEM not containing FBS, its aliquot (1×10^5) cells was added to each well of 96-well plates and cultured under 7% CO2 for 24 hr at 37° C. After 24-hr culture, the medium was changed with a fresh medium not containing serum and cells were incubated with the tridecapeptide (500 pg/ml, 10 ng/ml, 1 μg/ml, 100 μg/ml and 200 μg/ml) dissolved in 10% DMSO for 72 hr under the same conditions as described above. After removing supernatants, cells were washed once using PBS and incubated with SRB solution (Sigma). Cells were washed with PBS and observed under a microscope to find cell viability. In addition, absorbance at 590 nm was measured to analyze cell proliferation.

Data set [5] concerns NIH3T3. Put plainly: Cytotoxicity test, SRB colorimetric assay, fibroblasts. The class given is cell-based. The note with it: 500 pg/ml-200 μg/ml, 72 hr. The protocol:
as §1
On the technique in general: In SRB staining, fixed cells bind dye roughly in proportion to their protein.

Data set [6] has as its system HaCaT. The data set is described as follows: Cytotoxicity test, SRB colorimetric assay, keratinocytes. The format is cell-based. The note with it: 500 pg/ml-200 μg/ml, 72 hr. Here is the method: as §1
Data set [7] deals with tyrosinase. Put plainly: Tyrosinase activity in extracts of treated B16F10 cells (L-DOPA, absorbance 405 nm). The class given is cell-based. The note with it: α-MSH 200 ng/ml, TGFβ-1 10 ng/ml or peptide 10 ng/ml-30 μg/ml, 4 days. The protocol:
The tridecapeptide synthesized in Example 1 was analyzed to decrease levels of melanin pigment. B16F10 cells (Korean Cell Line Bank) were plated in a density of 1×10^5 cells/well and cultured in DMEM (Sigma) for 3 days at 37° C. under 5% CO2 conditions. After cell adhesion was observed, medium was changed with a fresh medium containing 2% serum. Cells were incubated with tested materials in determined concentrations for 4 days at 37° C. under 5% CO2 conditions. The tested materials were prepared in such a manner that components indicated in Table 6 were dissolved in medium and diluted with a mixed solvent of propylene glycol:ethanol:distilled water (5:3:2).
Afterwards, cells were harvested and treated with a lysis buffer containing sodiumdodecylsulfate (Sigma) and Triton X-100 (Sigma) to extract intracellular proteins. The extracted proteins were quantitated by the BCA method. For each experiment group, 90 μl of protein solution and 10 μl of L-DOPA (Sigma) were added and reacted for 30 min. The resultants were analyzed to measure their absorbance values at 405 nm for evaluating tyrosinase activities.

Data set [8] relates to NIH-3T3 cells. The data set is described as follows: Stability analysis: remaining activity of solutions stored at 37° C., by MTT assay. The note with it: 50 mM Tris-HCl (pH 8.0), days 0-100, tridecapeptide 10 μg/ml, TGF-β1 1 μg/ml. The class given is physicochemical. The protocol:
To evaluate stability of the purified tridecapeptide, NH2-Ile-Trp-Ser-Leu-Asp-Thr-Gln-Tyr-Gly-Gly-Arg-Gly-Asp-OH, it was dissolved in 50 mM Tris-HCl (pH 8.0) to a concentration of 10 μg/ml. A recombinant TGF-β1 (Sigma) produced by E. coli was prepared as a control in the same buffer to a concentration of 1 μg/ml. The prepared solutions were introduced into glass vials and kept to stand at 37° C. Afterwards, the solutions were taken on days 0, 1, 10, 25, 50, 75 and 100 and subjected to a MTT assay (Scudiero, D. A., et al. Cancer Res. 48:4827-4833 (1988)) using NIH-3T3 cells (Korean Cell Line Bank) for determining their remaining activity (FIG. 2). The results were given as relative values to the activity (100%) of sample taken on day 0.
A general note: Tetrazolium dyes change colour on reduction, which living cells bring about.

In data set [9] the test system is Mice melanocytes. The data set is described as follows: Inhibition of melanin generation induced by α-MSH (Dooley method). The format is cell-based. The note with it: α-MSH 200 ng/ml; peptide 10 ng/ml-30 μg/ml; 3 days; absorbance 400 nm. Here is the method:
The tridecapeptide synthesized in Example 1 was analyzed to decrease levels of melanin pigment. Mice melanocytes cultured were incubated with α-MSH (melanocyte stimulating hormone/Sigma) and then with the tridecapeptide in the determined concentrations to measure inhibition effects on melanin generation. Mice melanocytes were originated from C57BL/6 mice and cultured in DMEM (Dulbecco's modified Eagle's media) containing 10% fetal bovine serum at 37° C. under 5% CO2 conditions. Cells were cultured in a density of 1×10^5 cells/well and their adhesion to culture plates was observed. Then, cells were incubated with materials to be tested for 3 days. The tested materials were prepared in such a manner that components indicated in Table 5 were dissolved in medium and diluted with a mixed solvent of propylene glycol:ethanol:distilled water (5:3:2). Following removal of medium, cells were washed with PBS and treated with 1 N sodium hydroxide. The resultants were analyzed to measure their absorbance values at 400 nm.

In the case of `COc1cccc(-c2cc(=O)c3ccccc3o2)c1N` [PD98059, reference compound], in data set [1], the melanosome number result was “a large number of darkish pigments by induced melanosomes”. Besides, the “levels of TRP-1 and TRP-2” value in data set [2] is given as “increased”. Also, the “levels of Phospho ERK 1 and ERK 2” value in [3] was “greatly decrease levels of Phoshpo ERK 1 and ERK 2”.
Turning to `CC[C@H](C)[C@H](N)C(=O)N[C@@H](Cc1c[nH]c2ccccc12)C(=O)N[C@@H](CO)C(=O)N[C@@H](CC(C)C)C(=O)N[C@@H](CC(=O)O)C(=O)N[C@H](C(=O)N[C@@H](CCC(N)=O)C(=O)N[C@@H](Cc1ccc(O)cc1)C(=O)NCC(=O)NCC(=O)N[C@@H](CCCNC(=N)N)C(=O)NCC(=O)N[C@@H](CC(=O)O)C(=O)O)[C@@H](C)O` [tridecapeptide, NH2-Ile-Trp-Ser-Leu-Asp-Thr-Gln-Tyr-Gly-Gly-Arg-Gly-Asp-OH] (H-IWSLDTQYGGRGD-OH), the “cell number (cytotoxicity)” value in data set [4], in data set [5] and in data set [6] was “the decrease in cell number was not shown” each time.
“TGF-β1: recombinant TGF-β1 (Sigma) produced by E. coli, used as control”: the melanosome number result in [1] was “significantly reduced melanosome number”. For the same molecule, the tyrosinase activity result in [7] is reported as “relatively reduced tyrosinase activity in a dose dependent manner”. Also, the “levels of TRP-1 and TRP-2” value in data set [2] was “decreased”. The “remaining activity over time (relative to day 0 = 100%)” value in [8] was “sharply decreased with the lapse of time”. Also, the “levels of Phospho ERK 1 and ERK 2” value in [3] was “elevated levels of Phoshpo ERK 1 and ERK 2”.
As to “α-MSH: melanocyte stimulating hormone/Sigma, used to induce melanin generation (Ac-SYSMEHFRWGKPV-NH2; ends and bridges not checked; UniProt P01189 138-150, looked up) [reference compound]”, the tyrosinase activity entry in data set [7] is on record as “highly elevated level of tyrosinase activity”. For the same molecule, in data set [9], the “melanin generation / melanin content” value is listed as “highly elevated level of melanin production”.
